Test [1] concerns the target D(3) dopamine receptor (Homo sapiens, UniProt P35462). The test is described as follows: Displacement of [3H]N-methylspiperone from human dopamine D3 receptor expressed in HEK293 cells after 1 hr by liquid scintillation counting analysis. (In a radioligand displacement assay an active substance lowers the binding of a labelled ligand.)
Test [2] deals with D(3) dopamine receptor (Rattus norvegicus, UniProt P19020). The test is described as follows: Displacement of [3H]R-(+)-7-OHDPAT from dopamine D3 receptor in Sprague-Dawley rat ventral striatum after 90 mins.
D(3) dopamine receptor (Rattus norvegicus, UniProt P19020), sequence (P19020 whole entry): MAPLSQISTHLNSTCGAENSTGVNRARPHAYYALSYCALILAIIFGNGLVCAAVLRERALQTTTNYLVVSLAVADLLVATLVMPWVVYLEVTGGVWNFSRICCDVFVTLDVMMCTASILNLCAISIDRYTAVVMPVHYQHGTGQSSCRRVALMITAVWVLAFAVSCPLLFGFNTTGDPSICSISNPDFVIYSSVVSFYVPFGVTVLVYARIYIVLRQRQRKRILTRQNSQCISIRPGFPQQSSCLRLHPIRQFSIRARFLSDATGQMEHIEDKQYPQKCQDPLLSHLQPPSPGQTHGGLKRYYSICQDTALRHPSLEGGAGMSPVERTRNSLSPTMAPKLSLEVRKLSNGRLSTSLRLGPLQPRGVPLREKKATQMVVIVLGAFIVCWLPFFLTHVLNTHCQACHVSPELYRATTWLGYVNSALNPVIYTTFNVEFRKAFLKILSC
The next test concerns the target D(2) dopamine receptor (Homo sapiens, UniProt P14416). The test is described as follows: Displacement of [3H]N-methylspiperone from human dopamine D2 receptor expressed in HEK293 cells after 1 hr by liquid scintillation counting analysis.

D(2) dopamine receptor, sequence (P14416 whole entry): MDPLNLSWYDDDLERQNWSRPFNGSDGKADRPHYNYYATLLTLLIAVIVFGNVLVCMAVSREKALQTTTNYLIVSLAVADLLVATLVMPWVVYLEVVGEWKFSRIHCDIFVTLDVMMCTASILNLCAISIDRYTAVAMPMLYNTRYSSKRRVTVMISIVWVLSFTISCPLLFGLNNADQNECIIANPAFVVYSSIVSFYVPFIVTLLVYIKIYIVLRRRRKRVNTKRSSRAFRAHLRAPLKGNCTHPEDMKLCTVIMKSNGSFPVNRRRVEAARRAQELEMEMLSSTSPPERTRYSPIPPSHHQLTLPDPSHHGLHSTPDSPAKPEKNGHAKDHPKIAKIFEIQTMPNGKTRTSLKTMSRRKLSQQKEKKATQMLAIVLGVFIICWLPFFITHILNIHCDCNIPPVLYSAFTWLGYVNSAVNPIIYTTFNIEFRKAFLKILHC
D(3) dopamine receptor (Homo sapiens, UniProt P35462), sequence (P35462 as listed by the source): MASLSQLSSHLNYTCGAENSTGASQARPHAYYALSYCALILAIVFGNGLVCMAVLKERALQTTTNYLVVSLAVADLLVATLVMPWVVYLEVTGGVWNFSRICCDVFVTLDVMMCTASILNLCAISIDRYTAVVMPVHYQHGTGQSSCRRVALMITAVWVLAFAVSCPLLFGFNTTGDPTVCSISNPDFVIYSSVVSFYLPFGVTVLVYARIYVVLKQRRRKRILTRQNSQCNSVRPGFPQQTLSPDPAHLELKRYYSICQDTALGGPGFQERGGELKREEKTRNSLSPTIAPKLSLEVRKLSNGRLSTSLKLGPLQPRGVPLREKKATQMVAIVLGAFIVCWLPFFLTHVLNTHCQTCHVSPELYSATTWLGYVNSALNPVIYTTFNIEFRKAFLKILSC

As for `CCCN(CC[C@]1(O)C[C@@H](NC(=O)c2ccc3ccccc3c2)C1)[C@H]1C[C@@H]1c1ccccc1Cl`, the Ki came to 0.022 µM on D(3) dopamine receptor [1], 0.019 µM on D(3) dopamine receptor [2] and 0.923 µM at D(2) dopamine receptor.
Turning to `CCCN(CC[C@]1(O)C[C@@H](NC(=O)c2ccc3ccccc3c2)C1)[C@H]1C[C@@H]1c1cccc(Cl)c1`, the values for the Ki at D(3) dopamine receptor [1], on D(3) dopamine receptor [2] and on D(2) dopamine receptor were 0.038 µM, 0.028 µM and 1.22 µM, respectively.
For the compound `CCCN(CC[C@]1(O)C[C@@H](NC(=O)c2ccc3ccccc3c2)C1)C1CC1c1ccc(Cl)cc1` (some centres undefined), the Ki is 0.0026 µM on D(3) dopamine receptor [1], 0.0046 µM on D(3) dopamine receptor [2] and 0.667 µM on D(2) dopamine receptor.

The Ki is a measure of affinity in units of concentration, obtained from inhibition or displacement. Read a high Ki as a looser hold on the target.

The record behind these values is BindingDB's records for doi:10.1021/jm401798r (University of Michigan, 2014).
